According to US8796467B2, “Compounds” (Boehringer Ingelheim International GmbH, priority 2011, dated 2014):

Biological target: T1, human recombinant mGluR5 (Homo sapiens, UniProt P41594)
T1 construct: expressed in transfected cells; hygromycin and geneticin selection, tetracycline-regulated
Assay: Positive modulation of mGluR5, calcium based FLIPR assay in HEK 293 cell line
Details: EC50 of the modulation; HEK 293 cells expressing human recombinant mGluR5; glutamate at approximately 5% basal stimulation; peak height of Ca fluorescence signal
Method: The positive modulation of mGluR5 is measured in a HEK 293 cell line expressing human recombinant mGluR5 and is detected with calcium based FLIPR assay. The cells are cultured with DMEM supplemented with 10% FCS, 2 μg/mL tetracycline, 100 μg/mL hygromycin and 500 μg/mL gneticin. The cell culture media is exchanged for tetracycline-free cell culture media 3-7 days before the assay. One day before the assay the cell culture medium is exchanged to DMEM without glutamine and phenol red and supplemented with 10% FCS, 100 μg/mL hygromycin and 500 μg/mL geneticin. On the assay day, the medium of the subconfluent cultures is removed and the cells are detached by addition of 2.5 ml EDTA (0.02%) per 175 cm2 culture flask for 1 minute. The cells are resuspend in Ringer solution (140 mM NaCl, 5 mM KCl, 2.5 mM CaCl2, 1.5 mM MgCl2, 5 mM Glucose, 10 mM Hepes; adjusted to pH 7.4 with NaOH), pooled and Ringer solution added to adjust the volume to 50 mL. The cell suspension is centrifuged for 5 min at 1500 U/min (425 g). The supernatant is removed and the cells washed a second time with 50 ml fresh Ringer solution and centrifuged again as before. The supernatant is again removed and the pellet resuspended in Ringer solution to 1,000,000 cells/ml (1×10^6 cells/mL). The cells are plated onto BD BioCoat Poly-D-Lysine 384 well plates (20,000 cells/well; 20 μl/well). The lid covered plates are then incubated until use at 37° C./10% CO2. For dye loading, 20 μl of Calcium-4 assay kit solution (prepared according to the manufacturer's description in Ringer solution) are added to the cells and the plates are incubated for 80 min 37° C. and then 10 min at room temperature.
Controls, Compound Dilution and Assay Execution:
Each assay plate contained wells with “high” and “low” controls: • Low controls 1% DMSO/ringer solution+basal glutamate activation (defined as 100% CTL). • High controls 10 μM CDPPB+basal glutamate activation (defined as 200% CTL).
Test compounds are dissolved and diluted in DMSO to 100-fold the desired concentrations. In a second step, the compounds are diluted in Ringer solution such that the compounds are 4-fold more concentrated than the desired final assay concentration. The final DMSO concentration was 1%.
20 μl of each compound solution are then transferred to the assay plate and the Ca2+ kinetic is measured to determine any intrinsic compound activity. After 5 min incubation in the FLIPR device, the second stimulation with 20 μl of glutamate in Ringer solution (glutamate concentration adjusted to approximately 5% basal stimulation of the maximal possible glutamate effect) is added and the kinetic Ca2+ response of the wells was measured for the modulation effect.
The peak height of the Ca release related fluorescence signal (9-66) is used for the EC50.
The EC50 of the modulation is calculated over a nonlinear regression with GraphPad Prism (Table 1).

T1 sequence (P41594 21-1212): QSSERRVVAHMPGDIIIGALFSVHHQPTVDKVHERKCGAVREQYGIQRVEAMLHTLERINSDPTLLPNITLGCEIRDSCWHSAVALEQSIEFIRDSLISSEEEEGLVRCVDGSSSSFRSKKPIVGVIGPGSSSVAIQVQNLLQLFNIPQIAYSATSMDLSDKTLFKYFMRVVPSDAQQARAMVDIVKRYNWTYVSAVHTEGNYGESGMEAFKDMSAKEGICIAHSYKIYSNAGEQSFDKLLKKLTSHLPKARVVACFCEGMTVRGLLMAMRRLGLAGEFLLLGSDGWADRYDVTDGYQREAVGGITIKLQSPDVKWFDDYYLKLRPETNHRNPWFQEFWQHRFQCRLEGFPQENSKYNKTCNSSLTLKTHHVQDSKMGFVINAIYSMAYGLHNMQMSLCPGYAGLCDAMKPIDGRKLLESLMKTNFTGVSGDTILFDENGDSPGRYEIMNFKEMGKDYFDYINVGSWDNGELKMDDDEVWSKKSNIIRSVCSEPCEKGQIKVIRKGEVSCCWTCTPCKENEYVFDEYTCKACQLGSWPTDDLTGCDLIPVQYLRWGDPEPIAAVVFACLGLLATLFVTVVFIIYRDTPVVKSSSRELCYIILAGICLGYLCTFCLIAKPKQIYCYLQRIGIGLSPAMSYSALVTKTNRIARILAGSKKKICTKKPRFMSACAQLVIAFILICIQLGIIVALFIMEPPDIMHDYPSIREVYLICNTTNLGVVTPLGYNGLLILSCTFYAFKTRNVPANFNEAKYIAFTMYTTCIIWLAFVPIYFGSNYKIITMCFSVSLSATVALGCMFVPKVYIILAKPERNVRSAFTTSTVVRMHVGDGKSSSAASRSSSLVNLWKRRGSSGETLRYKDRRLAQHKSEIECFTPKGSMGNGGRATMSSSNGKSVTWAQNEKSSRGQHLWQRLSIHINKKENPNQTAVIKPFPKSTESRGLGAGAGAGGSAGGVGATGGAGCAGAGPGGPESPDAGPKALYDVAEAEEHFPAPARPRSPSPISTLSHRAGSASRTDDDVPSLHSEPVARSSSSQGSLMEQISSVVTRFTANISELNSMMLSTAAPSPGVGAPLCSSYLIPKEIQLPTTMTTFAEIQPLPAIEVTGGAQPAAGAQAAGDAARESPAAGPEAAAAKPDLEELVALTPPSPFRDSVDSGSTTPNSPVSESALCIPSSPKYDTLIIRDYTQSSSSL

EC50 [nM]	SMILES
61	Cc1nc2c(o1)CCN(C(=O)Cn1cc(-c3ccc(F)c(C)c3)nc1-c1ccccc1)C2 [Example 7.01.32]
162	Cc1nc2c(o1)CCN(C(=O)Cn1cc(-c3ccc(F)c(C)c3)nc1-c1ccccc1)CC2 [Example 7.01.29]
297	Cc1nc2c(o1)CN(C(=O)Cn1cc(-c3ccc(F)cc3)nc1-c1ccc(F)cc1)CC2 [Example 7.01.15.]
96	Cc1nc2c(s1)CCN(C(=O)Cn1cc(-c3ccc(F)cc3)nc1-c1ccc(F)cc1)CC2 [Example 7.01.17.]
42	Cc1cc(-c2cn(CC(=O)N3CCN(c4cc(F)ccn4)C(=O)C3)c(-c3ccc(F)cc3)n2)ccc1F [Example 7.01.25]
448	Nc1nc2c(s1)CCN(C(=O)Cn1cc(-c3ccc(F)cc3)nc1-c1ccc(F)cc1)CC2 [Example 7.01.18.]
275	Cc1cccc(-c2cn(CC(=O)N3CCc4nc(N)sc4CC3)c(-c3ccccc3)n2)c1 [Example 7.01.21.]
633	Cc1nc2c(s1)CN(C(=O)Cn1cc(-c3ccc(F)cc3)nc1-c1ccc(F)cc1)C2 [Example 7.01.16.]
107	Cc1cccc(-c2cn(CC(=O)N3CCc4nc(C)sc4CC3)c(-c3ccccc3)n2)c1 [Example 7.01.20.]
108	Cc1nc2c(s1)CN(C(=O)Cn1cc(-c3ccc(F)c(C)c3)nc1-c1ccccc1)CC2 [Example 7.01.31]
250	Cc1cccc(-c2cn(CC(=O)N3CCc4nc(C)oc4C3)c(-c3ccccc3)n2)c1 [Example 7.01.22.]
431	Cc1cc(-c2cn(CC(=O)N3CCN(c4cccc(C#N)c4)C(=O)C3)c(-c3ccc(F)cc3)n2)ccc1F [Example 7.01.23]
574	Cc1cccc(-c2cn(CC(=O)N3Cc4nc(C)sc4C3)c(-c3ccccc3)n2)c1 [Example 7.01.19.]
150	Cc1cc(-c2cn(CC(=O)N3CCc4ncsc4CC3)c(-c3ccccc3)n2)ccc1F [Example 7.01.30]
44	Cc1cc(-c2cn(CC(=O)N3CCN(c4ccccn4)C(=O)C3)c(-c3ccc(F)cc3)n2)ccc1F [Example 7.01.26]
90	COc1cccc(N2CCN(C(=O)Cn3cc(-c4ccc(F)c(C)c4)nc3-c3ccc(F)cc3)CC2=O)c1 [Example 7.01.24]
172	Cc1cc(-c2cn(CC(=O)N3CCc4nc(N)sc4C3)c(-c3ccccc3)n2)ccc1F [Example 7.01.27]
127	Cc1nc2c(o1)CN(C(=O)Cn1cc(-c3ccc(F)c(C)c3)nc1-c1ccccc1)C2 [Example 7.01.33]
101	Cc1nc2c(o1)CN(C(=O)Cn1cc(-c3ccc(F)c(C)c3)nc1-c1ccc(F)cc1)C2 [Example 7.01.34]
769	CC(=O)Nc1nc2c(s1)CCN(C(=O)Cn1cc(-c3ccc(F)c(C)c3)nc1-c1ccccc1)CC2 [Example 7.01.28]

The next lines start with the compound.

SMILES	EC50 [nM]
Cc1cc(-c2cn(CC(=O)N3CCc4nc(N)sc4CC3)c(-c3ccc(F)cc3)n2)ccc1F [Example 7.01.11.]	107
Cc1cc(-c2cn(CC(=O)N3CCc4nc(N)sc4CC3)c(-c3ccccc3)n2)ccc1F [Example 7.01.02.]	224
Cc1nc2c(o1)CN(C(=O)Cn1cc(-c3ccc(F)c(C)c3)nc1-c1ccccc1)CC2 [Example 7.01.03.]	90
Cc1nc2c(o1)CN(C(=O)Cn1cc(-c3ccc(F)c(C)c3)nc1-c1ccc(F)cc1)CC2 [Example 7.01.13.]	40
Nc1nc2c(s1)CCN(C(=O)Cn1cc(-c3ccc(F)cc3)nc1-c1ccccc1)CC2 [Example 7.01.08.]	738
Cc1nc2c(s1)CCN(C(=O)Cn1cc(-c3ccc(F)c(C)c3)nc1C(C)C)CC2 [Example 7.01.10.]	854
Cc1nc2c(o1)CN(C(=O)Cn1cc(-c3ccc(F)cc3)nc1-c1ccccc1)CC2 [Example 7.01.07.]	939
Cc1nc2c(s1)CCN(C(=O)Cn1cc(-c3ccc(F)c(C)c3)nc1C1CCCCC1)CC2 [Example 7.01.06.]	332
Cc1nc2c(s1)CN(C(=O)Cn1cc(-c3ccc(F)c(C)c3)nc1-c1ccc(F)cc1)C2 [Example 7.01.14.]	64
Cc1nc2c(o1)CN(C(=O)Cn1cc(-c3ccc(F)c(C)c3)nc1C1CCCCC1)CC2 [Example 7.01.04.]	885
Cc1cc(-c2cn(CC(=O)N3CCc4nc(N)sc4CC3)c(C3CCCCC3)n2)ccc1F [Example 7.01.05.]	623
Cc1nc2c(s1)CCN(C(=O)Cn1cc(-c3ccc(F)c(C)c3)nc1-c1ccccc1)CC2 [Example 7.01.01., 2-(4-(4-fluoro-3-methyl-phenyl)-2-phenyl-imidazol-1-yl)-1-(2-methyl-4,5,7,8-tetrahydro-thiazolo[4,5-d]azepin-6-yl)-ethanone]	90
Cc1nc2c(s1)CCN(C(=O)Cn1cc(-c3ccc(F)cc3)nc1-c1ccccc1)CC2 [Example 7.01.09.]	259
Cc1nc2c(s1)CCN(C(=O)Cn1cc(-c3ccc(F)c(C)c3)nc1-c1ccc(F)cc1)CC2 [Example 7.01.12.]	78
